Values quoted from earlier work as cited in patent US20050209551A1, “Detoxification and breast health preparations” (priority 2004, published 2005).

Assays:
[1] = system: precancerous lesions of the cervix and laryngeal papillomas; conditions: pathologies with a human papillomavirus (HPV); reported
[2] = oral administration

| Structure (SMILES) | clinical effectiveness in treating precancerous lesions of the cervix and laryngeal papillomas [1] | fraction of EDTA absorbed when administered by mouth ([2]; general consensus) | unabsorbed EDTA that remains within the digestive tract ([2]; reported) [%] |
| --- | --- | --- | --- |
| c1ccc2c(Cc3c[nH]c4ccccc34)c[nH]c2c1 [DIM, 3,3′-diindolylmethane] | clinically effective |  |  |
| O=C(O)CN(CCN(CC(=O)O)CC(=O)O)CC(=O)O [EDTA, ethylene-diaminetetraacetic acid] |  | about five | 95 |
| OCc1c[nH]c2ccccc12 [Example I3C, indole-3-carbinol] | clinically effective |  |  |
